Assays:
Test in all cases: combination Emax (second highest fraction inhibited in the dose matrix, 72 h); higher = more inhibition; extreme values may be limits of the assay
[1] = tested on: BT-474 (Breast Carcinoma)
Summary of the method: (§1)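 Bliss excess equals the observed combination effect minus the expected value EA + EB − EA·EB, where EA and EB are the effects of each agent alone. Combination Emax is the second-highest inhibition within the matrix. Inhibition was scaled from CellTiter-Glo 2.0 luminescence, with 0 set by vehicle wells and 1 by blank wells, after 72 hours of two-drug dosing of cells plated in 1536-well plates.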

[2] = tested on: Daudi (Burkitt's Lymphoma)
Summary of the method: as §1

[3] = tested on: IGROV-1 (Ovarian Carcinoma)
Summary of the method: as §1

[4] = tested on: JJN-3 (Plasma Cell Myeloma)
Summary of the method: as §1

[5] = tested on: GRANTA-519 (B-Cell Non-Hodgkin's Lymphoma)
Summary of the method: as §1

[6] = tested on: JURL-MK1 (Chronic Myelogenous Leukemia)
Summary of the method: as §1

[7] = tested on: NCI-H2452 (Mesothelioma)
Summary of the method: as §1

[8] = tested on: ATN-1 (T-Lymphoblastic Leukemia)
Summary of the method: as §1

[9] = tested on: SBC-3 (Small Cell Lung Carcinoma)
Summary of the method: as §1

[10] = tested on: SNU-1 (Gastric Carcinoma)
Summary of the method: as §1

[11] = tested on: NCI-H2170 (Squamous Cell Lung Carcinoma)
Summary of the method: as §1

[12] = tested on: A375 (Melanoma)
Summary of the method: as §1

[13] = tested on: OCI-M1 (Acute Myeloid Leukemia)
Summary of the method: as §1

[14] = tested on: RPMI-8402 (T-Lymphoblastic Leukemia)
Summary of the method: as §1

[15] = tested on: HT-1197 (Bladder Carcinoma)
Summary of the method: as §1

[16] = tested on: COR-L105 (Lung Adenocarcinoma)
Summary of the method: as §1

[17] = tested on: SUP-HD1 (Hodgkin's Lymphoma)
Summary of the method: as §1

[18] = tested on: RS4-11 (B-Lymphoblastic Leukemia)
Summary of the method: as §1

[19] = tested on: NCI-H2009 (Lung Adenocarcinoma)
Summary of the method: as §1

[20] = tested on: MG-63 (Osteosarcoma)
Summary of the method: as §1

SMILES | combination Emax [1] | combination Emax [2] | combination Emax [3] | combination Emax [4] | combination Emax [5] | combination Emax [6] | combination Emax [7] | combination Emax [8] | combination Emax [9] | combination Emax [10] | combination Emax [11] | combination Emax [12] | combination Emax [13] | combination Emax [14] | combination Emax [15] | combination Emax [16] | combination Emax [17] | combination Emax [18] | combination Emax [19] | combination Emax [20]
COc1cccc(OCCCN)c1-c1cc(Nc2cnc(C#N)cn2)n[nH]1 [Prexasertib] + CCc1c2c(nc3ccc(O)cc13)-c1cc3c(c(=O)n1C2)COC(=O)[C@]3(O)CC [SN-38] (first compound max 1 µM, 7x7, partner max 0.3 µM) | 0.244 | 0.987 | 0.863 | 0.981 | 1 | 1 | 0.895 | 0.999 | 0.957 | 0.953 | 0.956 | 0.962 | 1 | 1 | 0.543 | 0.488 | 0.954 | 1 | 0.886 | 0.964
COc1cccc(OCCCN)c1-c1cc(Nc2cnc(C#N)cn2)n[nH]1 [Prexasertib] + CN(C)CCCOc1ccc(-c2ccc3ncc4c(c3c2)n(C2CCOCC2)c(=O)n4C)cn1 [AZD0156] (first compound max 1 µM, 7x7, partner max 1 µM) | 0.237 | 0.965 | 0.788 | 0.976 | 0.873 | 1 | 0.644 | 1 | 0.8 | 0.842 | 0.868 | 0.851 | 0.951 | 1 | 0.571 | 0.435 | 0.886 | 1 | 0.462 | 0.906
COc1cccc(OCCCN)c1-c1cc(Nc2cnc(C#N)cn2)n[nH]1 [Prexasertib] + C[C@@H]1COCCN1C2=NC(=NC(=C2)C3(CC3)[S@](=N)(=O)C)C4=C5C=CNC5=NC=C4 [AZD6738] (first compound max 1 µM, 7x7, partner max 10 µM) | 0.133 | 0.939 | 0.754 | 0.971 | 0.856 | 1 | 0.672 | 1 | 0.762 | 0.888 | 0.847 | 0.853 | 0.956 | 1 | 0.603 | 0.473 | 0.903 | 1 | 0.522 | 0.866
COc1cccc(OCCCN)c1-c1cc(Nc2cnc(C#N)cn2)n[nH]1 [Prexasertib] + Cc1cc2ncnn2cc1Nc1ncc2c(n1)n(C1CCOCC1)c(=O)n2C [AZD7648] (first compound max 1 µM, 7x7, partner max 10 µM) | 0.222 | 0.947 | 0.76 | 0.966 | 0.852 | 1 | 0.714 | 1 | 0.755 | 0.84 | 0.88 | 0.877 | 0.948 | 1 | 0.517 | 0.444 | 0.89 | 1 | 0.45 | 0.921
COc1cccc(OCCCN)c1-c1cc(Nc2cnc(C#N)cn2)n[nH]1 [Prexasertib] + O=C(c1cc(Cc2n[nH]c(=O)c3ccccc23)ccc1F)N1CCN(C(=O)C2CC2)CC1 [Olaparib] (first compound max 1 µM, 7x7, partner max 10 µM) | 0.24 | 0.945 | 0.705 | 0.978 | 0.865 | 1 | 0.735 | 1 | 0.744 | 0.777 | 0.787 | 0.815 | 0.981 | 1 | 0.478 | 0.401 | 0.802 | 1 | 0.574 | 0.822
CCc1c2c(nc3ccc(O)cc13)-c1cc3c(c(=O)n1C2)COC(=O)[C@]3(O)CC [SN-38] + CN(C)CCCOc1ccc(-c2ccc3ncc4c(c3c2)n(C2CCOCC2)c(=O)n4C)cn1 [AZD0156] (first compound max 0.3 µM, 7x7, partner max 1 µM) | 0.0708 | 0.95 | 0.691 | 0.626 | 0.93 | 1 | 0.33 | 1 | 0.919 | 0.942 | 0.919 | 0.993 | 0.991 | 1 | 0.156 | 0.536 | 0.907 | 0.984 | 0.562 | 0.906
Cn1cnc2c(F)c(Nc3ccc(Br)cc3Cl)c(C(=O)NOCCO)cc21 [Selumetinib] + C=CCn1c(=O)c2cnc(Nc3ccc(N4CCN(C)CC4)cc3)nc2n1-c1cccc(C(C)(C)O)n1 [AZD1775] (first compound max 10 µM, partner max 1 µM) | 0.346 | 0.662 | 0.848 | 0.67 | 0.869 | 1 | 0.547 | 0.974 | 0.269 | 0.766 | 0.699 | 0.755 | 0.956 | 1 | 0.507 | 0.534 | 0.727 | 0.979 | 0.779 | 0.394
Cn1cnc2c(F)c(Nc3ccc(Br)cc3Cl)c(C(=O)NOCCO)cc21 [Selumetinib] + CC(C)n1c(=O)n(C)c2cnc3cc(F)c(-c4ccc(OCCCN5CCCCC5)nc4)cc3c21 [AZD1390] (first compound max 10 µM, 7x7, partner max 0.3 µM) | 0.0709 | 0.211 | 0.618 | 0.281 | 0.095 | 0.973 | 0.262 | 0.172 | 0.152 | 0.384 | 0.0988 | 0.684 | 0.749 | 0.0871 | 0.152 | 0.402 | 0.224 | 0.0431 | 0.405 | 0.305
Cn1cnc2c(F)c(Nc3ccc(Br)cc3Cl)c(C(=O)NOCCO)cc21 [Selumetinib] + CCN(CCO)CCCOc1ccc2c(Nc3cc(CC(=O)Nc4cccc(F)c4)[nH]n3)ncnc2c1 [AZD2811] (first compound max 10 µM, 7x7, partner max 1 µM) | 0.0839 | 0.387 | 0.665 | 0.551 | 0.439 | 0.994 | 0.249 | 0.734 | 0.482 | 0.53 | 0.64 | 0.718 | 0.841 | 0.754 | 0.223 | 0.387 | 0.453 | 0.937 | 0.676 | 0.32
Cn1cnc2c(F)c(Nc3ccc(Br)cc3Cl)c(C(=O)NOCCO)cc21 [Selumetinib] + C[C@@H]1COCCN1C2=NC(=NC(=C2)C3(CC3)[S@](=N)(=O)C)C4=C5C=CNC5=NC=C4 [AZD6738] (first compound max 10 µM, 7x7, partner max 10 µM) | 0.0449 | 0.672 | 0.818 | 0.677 | 0.909 | 1 | 0.363 | 0.97 | 0.656 | 0.79 | 0.618 | 0.772 | 0.984 | 0.974 | 0.422 | 0.483 | 0.668 | 0.953 | 0.627 | 0.547
CC(=O)Nc1cccc(-n2c(=O)n(C3CC3)c(=O)c3c(Nc4ccc(I)cc4F)n(C)c(=O)c(C)c32)c1 [Trametinib] + Cc1nc(-c2cn3c(n2)-c2ccc(-c4cnn(C(C)(C)C(N)=O)c4)cc2OCC3)n(C(C)C)n1 [Taselisib] (first compound max 1 µM, 7x7, partner max 10 µM) | 0.841 | 0.523 | 0.966 | 0.532 | 0.189 | 1 | 0.617 | 0.74 | 0.703 | 0.769 | 0.919 | 0.935 | 1 | 0.777 | 0.76 | 0.9 | 0.616 | 0.35 | 0.955 | 0.674
CC1(C)CCC(CN2CCN(c3ccc(C(=O)NS(=O)(=O)c4ccc(NCC5CCOCC5)c([N+](=O)[O-])c4)c(Oc4cnc5[nH]ccc5c4)c3)CC2)=C(c2ccc(Cl)cc2)C1 [Venetoclax] + C1CN(CCC1(C(=O)N[C@@H](CCO)C2=CC=C(C=C2)Cl)N)C3=NC=NC4=C3C=CN4 [Capivasertib] (first compound max 1 µM, 7x7, partner max 3 µM) | 0.383 | 0.205 | 0.738 | 0.305 | 0.411 | 0.291 | 0.272 | 0.646 | 0.543 | 0.256 | 0.375 | 0.175 | 0.157 | 0.498 | 0.326 | 0.23 | 0.877 | 1 | 0.128 | 0.317
CC1(C)CCC(CN2CCN(c3ccc(C(=O)NS(=O)(=O)c4ccc(NCC5CCOCC5)c([N+](=O)[O-])c4)c(Oc4cnc5[nH]ccc5c4)c3)CC2)=C(c2ccc(Cl)cc2)C1 [Venetoclax] + C=CCn1c(=O)c2cnc(Nc3ccc(N4CCN(C)CC4)cc3)nc2n1-c1cccc(C(C)(C)O)n1 [AZD1775] (first compound max 1 µM, partner max 1 µM) | 0.516 | 0.663 | 0.819 | 0.693 | 1 | 0.999 | 0.739 | 0.977 | 0.899 | 0.769 | 0.652 | 0.505 | 0.912 | 1 | 0.487 | 0.372 | 0.921 | 1 | 0.637 | 0.626

From the supplement of paper PMC11061612
